This is an account of results in patent US5236946A, “Amino acid esters of cycloaliphatic alcohols and their use in treating lipemic disorders” (Panmedica S.A., priority 1986, dated 1993).

Molecules are shown by their SMILES. Where a name gives a salt, the structure may show the parent alone.

Assay [1] has as its system rats rendered hyperlipemic with olive oil. As to the kind of experiment: Hypolipemic activity in rats rendered hyperlipemic with olive oil. The class given is in vivo. To be noted: rat, atherogenic diet enriched with olive oil. As for the experimental part: EXAMPLE XVI-HYPOLIPEMIC ACTIVITY IN RATS RENDERED HYPERLIPEMIC WITH OLIVE OIL
A group of rats is placed on an atherogenic hyperlipemic diet enriched with olive oil and the animals are then treated per os. The cholesterol and triglycerides are then determined as in the previous example. […]

The test system of assay [2] is experimental hyperlipemia induced by Triton (rats). Description: Activity on the experimental hyperlipemia induced by Triton. The class given is in vivo. To be noted: rat, Triton 300 mg/kg i.p., 18 hours. How it is done: EXAMPLE XV-ACTIVITY ON THE EXPERIMENTAL HYPERLIPEMIA INDUCED BY TRITON
Groups of 10 fasted rats weighing about 200 g are treated with an intraperitoneal injection of Triton at a dose of 300 mg/kg; immediately afterwards, the products are administered orally.
After 18 hours, the cholesterol and triglycerides are determined.

The target in assay [3] is T1, 3-hydroxy-3-methylglutaryl coenzyme A reductase (Rattus norvegicus, UniProt P51639).
T1 sequence (P51639 1-887): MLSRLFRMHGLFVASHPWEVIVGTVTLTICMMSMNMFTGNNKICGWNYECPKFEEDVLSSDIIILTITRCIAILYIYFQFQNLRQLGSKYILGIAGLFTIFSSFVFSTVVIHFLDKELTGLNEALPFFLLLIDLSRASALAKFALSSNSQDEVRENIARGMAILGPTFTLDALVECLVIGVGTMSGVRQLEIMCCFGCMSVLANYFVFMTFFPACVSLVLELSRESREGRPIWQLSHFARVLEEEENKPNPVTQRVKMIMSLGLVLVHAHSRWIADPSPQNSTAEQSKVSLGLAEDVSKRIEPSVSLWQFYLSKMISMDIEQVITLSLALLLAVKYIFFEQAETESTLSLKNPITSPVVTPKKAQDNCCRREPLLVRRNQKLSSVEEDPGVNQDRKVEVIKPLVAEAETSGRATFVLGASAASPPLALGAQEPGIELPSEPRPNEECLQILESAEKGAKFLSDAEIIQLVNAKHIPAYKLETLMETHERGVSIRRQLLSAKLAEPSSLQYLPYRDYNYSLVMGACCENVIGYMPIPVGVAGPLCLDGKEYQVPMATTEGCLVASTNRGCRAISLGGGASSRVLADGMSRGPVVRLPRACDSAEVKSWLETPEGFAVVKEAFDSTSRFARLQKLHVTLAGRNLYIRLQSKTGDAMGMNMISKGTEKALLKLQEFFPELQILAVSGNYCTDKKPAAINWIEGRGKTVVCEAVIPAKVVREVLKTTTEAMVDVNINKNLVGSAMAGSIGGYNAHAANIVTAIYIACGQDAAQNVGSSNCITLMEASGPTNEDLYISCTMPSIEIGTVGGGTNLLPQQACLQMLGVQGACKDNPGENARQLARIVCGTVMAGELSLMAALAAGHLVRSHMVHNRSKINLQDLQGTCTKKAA
As to the kind of experiment: Inhibitory activity towards 3-hydroxy-3-methylglutaryl coenzyme A reductase (method of Shefer et al.). The class given is biochemical. The text has this: EXAMPLE XVII-DETERMINATION OF THE INHIBITORY ACTIVITY OF THE COMPOUNDS TOWARDS 3-HYDROXY-3-METHYLGLUTARYL COENZYME A REDUCTASE
The method used is the one described by Shefer et al. (J. Lipid Res. 1972, 13, 402); cf. also Stokker (J. Med. Chem. 1985, 28, 357).

The test system of assay [4] is cholesterol synthesis. Conditions: cited from earlier work.
[5] abbreviates: per os 100 mg/kg, listed as Ex. I.
[6] abbreviates: oral 150 mg/kg, listed as Ex. I.
The mark [7] stands for this setting: per os 100 mg/kg, listed as Ex. IV.
The mark [8] stands for this setting: oral 150 mg/kg, listed as Ex. IV.
[9] abbreviates: per os 100 mg/kg, listed as Ex. III.
The mark [10] stands for this setting: oral 150 mg/kg, listed as Ex. III.

`CC1CC(OC(=O)[C@@H]2CCC(=O)N2)CC(C)(C)C1` (single isomer, unassigned) [Example I, 3,3,5-Trimethylcyclohexyl L-pyroglutamate]: the Cholesterol level in assay [1] (per os 25 mg/kg) was 1.73 g/L; in assay [1] (setting [5]), 1.50 g/L; in assay [2] (oral 50 mg/kg), 2.80 g/L; in assay [2] (setting [6]) it was 1.95 g/L. The Triglyceride level in assay [1] (per os 25 mg/kg) was 1.39 g/L; in assay [1] (setting [5]), 0.80 g/L; in assay [2] (oral 50 mg/kg), 1.46 g/L; in assay [2] (setting [6]), 0.93 g/L. The IC50 (usually the concentration needed to halve the response being measured) in assay [3] is 100 nM.
In the case of `CC1CC(OC(=O)[C@@H]2CCC(=O)N2)CC(C)(C)C1` (single isomer, unassigned) [Example IV, 3,3,5-TRIMETHYLCYCLOHEXYL PYROGLUTAMATE], the values for the Cholesterol level in assay [1] (setting [7]) and in assay [2] (setting [8]) were 1.47 g/L and 2.15 g/L, respectively. The Triglyceride level in assay [1] (setting [7]) was found to be 0.80 g/L; in assay [2] (setting [8]) it was 0.85 g/L. In assay [3], this compound returned an IC50 of 150 nM.
As for `CN(C)CCCN(C)[C@H]1CC[C@H]2[C@@H]3CC=C4C[C@@H](O)CC[C@]4(C)[C@H]3CC[C@]12C` [20, 25-Diazacholesterol], in assay [4], the inhibits cholesterol synthesis result is given as “inhibits cholesterol synthesis”.
In assay [1] (setting [9]), `CC1CC(OC(=O)[C@@H]2CCC(=O)N2)CC(C)(C)C1` (some centres unmarked) [Example III, 3,3,5-trimethylcyclohexyl pyroglutamate] had a Cholesterol level of 1.47 g/L and a Triglyceride level of 1.01 g/L. Besides, in assay [2] (setting [10]), the Cholesterol level came to 2.00 g/L and the Triglyceride level is 1.10 g/L.
In assay [2] (oral 150 mg/kg), `CC1CC(C)CC(OC(=O)[C@@H]2CCC(=O)N2)C1` (stereo partly drawn) [Example IX, L-Pyroglutamate of 3,5-dimethylcyclohexanol] came in with a Cholesterol level of 2.10 g/L and a Triglyceride level of 1.30 g/L. In assay [3], this compound came in with an IC50 of 400 nM.
In the case of `CC1CC(OC(=O)[C@@H](N)CCC(N)=O)CC(C)(C)C1` (stereo partly drawn) [Example V, trans-3,3,5-trimethylcyclohexyl L-γ-amidoglutamate hydrochloride], the results for the Cholesterol level in assay [1] (per os 100 mg/kg) and in assay [2] (oral 150 mg/kg) were 1.62 g/L and 1.95 g/L, respectively. For the same compound, the Triglyceride level in assay [1] (per os 100 mg/kg) turned out to be 0.92 g/L; in assay [2] (oral 150 mg/kg), 1.15 g/L. Besides, half-maximal inhibition in assay [3] (IC50) was put at 80 nM.
In assay [2] (oral 150 mg/kg), `CC1CC(OC(=O)[C@@H](N)CCC(=O)O)CC(C)(C)C1` (stereo partly drawn) [Example VI, TRANS-3,3,5-TRIMETHYLCYCLOHEXYL L-α-GLUTAMATE HYDROCHLORIDE] showed a Cholesterol level of 2.50 g/L and a Triglyceride level of 2.00 g/L. The compound further yielded an IC50 in assay [3] of 120 nM.
The corresponding values for `CC(=O)N[C@@H](CC(=O)O)C(=O)OC1CC(C)CC(C)(C)C1` (stereo partly drawn) [Example VII, MAGNESIUM SALT OF 3,3,5-TRIMETHYLCYCLOHEXYL N-ACETYL-L-α-ASPARTATE] are 3.00 g/L, 2.70 g/L and 500 nM.
In turn, `O=C1CC[C@@H](C(=O)OC2CCCCC2)N1` [Example VIII, L-Pyroglutamate of cyclohexanol] displayed an IC50 in assay [3] of 550 nM.
The same measure, in the same setting: in the case of `CC1CCCC(C)C1OC(=O)[C@@H]1CCC(=O)N1` (stereo partly drawn) [Example X, L-Pyroglutamate of 2,6-dimethylcyclohexanol] it was 400 nM.
As to `CC1=CC(OC(=O)[C@@H]2CCC(=O)N2)CC(C)(C)C1` (stereo partly drawn) [Example XI, L-Pyroglutamate of 3,5,5-trimethylcyclohex-2-en-1-ol], in assay [2] (oral 150 mg/kg), the Cholesterol level is 2.00 g/L and the Triglyceride level was determined as 1.92 g/L. The IC50 in assay [3] worked out at 130 nM.
As to `CC1(OC(=O)[C@@H]2CCC(=O)N2)CCCC1` [Example XII, L-Pyroglutamate of 1-methylcyclopentanol], in assay [3], the IC50 stood at 600 nM.
In assay [2] (oral 150 mg/kg), `CC1=CCC(OC(=O)[C@@H]2CCC(=O)N2)(C(C)C)CC1` (stereo partly drawn) [Example XIII, L-Pyroglutamate of terpin-4-enol] showed a Cholesterol level of 1.90 g/L and a Triglyceride level of 1.20 g/L. The compound also returned an IC50 in assay [3] of 210 nM.
For `CC1=CCC(C(C)(C)OC(=O)[C@@H]2CCC(=O)N2)CC1` (stereo partly drawn) [Example XIV, L-Pyroglutamate of terpineol] the same measures were 2.12 g/L, 1.10 g/L and 300 nM.
In assay [2] (oral 500 mg/kg), `O=C(O)c1cccnc1` [nicotinic acid, reference compound] gave a Cholesterol level of 5.00 g/L and a Triglyceride level of 1.41 g/L.
